These results are taken from patent publication US20250332154A1, “USE OF NAPHTHOQUINE PHOSPHATE IN PREPARATION OF A MEDICAMENT FOR TREATING AUTOIMMUNE DISEASES” (SHANGHAI PHARMACEUTICALS INDUSTRY CO., LTD, priority 2022, published 2025).

Counter-ions that a name gives are not always drawn.

Data set [1] concerns bovine type II collagen-induced arthritis in mice. Put plainly: Bovine type II collagen-induced arthritis in mice: arthritis scoring and hindfoot thickness. Type of data set: in vivo, mouse. On the procedure:
(§1) Normal group, model group, positive medicament (1 mg/kg dexamethasone) group, naphthoquine phosphate (25, 50, 100 mg/kg) groups, hydroxychloroquine sulfate (100 mg/kg) group.
(§2) 10 mg of Type II Collagen (CII) was swollen in 2.5 ml of 0.1 mol/L glacial acetic acid to prepare a 4 mg/ml CII solution. This solution was fully emulsified with an equal volume of CFA, and injected subcutaneously (50 μl) at the base of the tail of mice. After 21 days, 4 mg/ml CII solution was fully emulsified with an equal volume of IFA. This mixture was injected subcutaneously (50 μL) at the base of the tail of mice to boost the immune response.
The severity of arthritis was scored by observing joint lesions of limbs of mice. Detectable arthritis accompanied by erythema in one or more fingers was scored as 1 point, moderate redness and swelling from the ankle joint to the middle of the foot was scored as 2 points, severe redness and swelling from the ankle joint to the fingers was scored as 3 points, and severe swelling with ankylosis was scored as 4 points. During scoring, bilateral hindfoot thickness was measured.

The subject of a further data set is anti-dsDNA antibodies. Put plainly: Anti-double-stranded DNA antibodies in serum of MRL/lpr mice (ELISA). To be noted: intragastric 25, 50 mg/kg, FIG. 8. Type of data set: in vivo, mouse. On the procedure:
Normal group, model group, positive medicament (1 mg/kg prednisone) group, naphthoquine phosphate (25, 50 mg/kg) group, hydroxychloroquine sulfate (100 mg/kg) group.
50 μl double-stranded DNA solution (final concentration: 50 μg/ml) was added to each well of a 96-well ELISA plate for coating overnight. The plate was washed 4 times with 200 μl washing solution (1L PBS+500 μl Tween 20) per well. 100 μl 1% BSA was added to each well and blocked for 1 hour. The plate was washed 4 times with 200 μl washing solution per well. 50 μl diluted mouse serum samples of each group were added to each well and incubated for 2 hours. The plate was washed 4 times with 200 μl washing solution per well. Horseradish peroxidase (HRP)-conjugated IgG (H+L) secondary antibodies were added and incubated for 1 hour. The plate was washed 5 times with 200 μl washing solution per well. 50 μl tetramethylbenzidine (TMB) substrate was added, and 30 μl 1M sulfuric acid solution was added to terminate color development based on the condition of color development. Absorbance values at 450 nm/570 nm were read by a microplate reader (Spectra Max 190, Molecular Devices).
At the end of the experiment, eyeballs were removed to collect blood. ELISA method was used to detect the levels of anti-dsDNA antibodies in serum of experimental mice, and the anti-nuclear antibody kit was used to detect the levels of anti-nuclear antibodies. […]

Data set [2] concerns spleen and lymph node lymphocytes in arthritic mice. Put plainly: Lymphocyte proliferation of spleen and lymph nodes of arthritic mice (3H-TdR incorporation). The note with it: intragastric, cells stimulated ex vivo, FIG. 3. In kind it is in vivo, mouse. On the procedure:
as §1, §2
Lymphocyte proliferation in each group was assessed using the ^3H-TdR incorporation method. Lymph nodes […] of mice in each group were isolated to prepare lymphocyte suspensions. The cells were inoculated into each well of a 96-well plate. ConA (final concentration: 5 μg/ml) and LPS (final concentration: 10 μg/ml) were added respectively, and cultured in a 37° C., 5% CO2 incubator for 48 hours. Eight hours before the end of the culture, 25 μl ^3H-TdR and anti-CD3 (final concentration: 5 μg/ml, pre-incubated overnight) were added to each well. The cells were cultured in a 37° C., 5% CO2 incubator for […]. […] 5 ml scintillation fluid was added, and the values of radioactive counts per minute were read on a Beta counter (2450 Microplate Counter, PerkinElmer).

Another data set relates to mouse spleen lymphocytes. Put plainly: Non-specific cytotoxicity assay (MTT), mouse spleen lymphocytes. Type of data set: cell-based. To be noted: mouse whole spleen lymphocytes, 48 hours, listed as Hydroxychloroquine Sulfate (Zhongxi Sunve). On the procedure:
BALB/c mice were sacrificed by cervical dislocation, and spleens were aseptically excised to prepare whole spleen lymphocytes. The cells were adjusted to the required concentration. The compound concentrations started at 250 μM and was diluted with a 4-fold gradient to obtain 10 concentrations: 250, 62.5, 15.625, 3.906, 0.977, 0.244, 0.061, 0.015, 0.004 and 0.001 μM.
A suspension of mouse spleen lymphocytes was inoculated into a 96-well plate at 8×10^5/well, and the above 10 concentration gradients of the compound were added. A corresponding cell control (i.e. spleen lymphocyte culture system without compound) and a RPMI 1640 culture medium background control (blank culture medium control) were set up. The cells were cultured in a 37° C., 5% CO2 incubator for 48 hours. Four hours before the end of the culture, 20 μl of 5 mg/ml MTT solution was added, and the reaction continued until the end of the culture (i.e. the aforementioned 48 hours). The supernatant was aspirated and discarded, 200 μl DMSO was added to each well to dissolve the crystals. […]. The absorbance value was measured at […] with a microplate reader (Spectra Max 190, Molecular Devices).

Take `CC(C)(C)NCc1cc(Nc2ccnc3cc(Cl)ccc23)c2c(c1O)CCCC2.O=P(O)(O)O.O=P(O)(O)O` [Naphthoquine Phosphate, Naphthoquine phosphate]: in data set [1] (intragastric, 25, 50, 100 mg/kg, FIG. 1, vs model group), the “arthritis scores of model mice” value is given as “significantly reduced”. Moreover, the “foot swelling in arthritic mice” value in data set [1] (intragastric, FIG. 2) is “improved”. In addition, in data set [1] (same dose (100 mg/kg), FIG. 1), the “therapeutic effect on arthritis scores compared with hydroxychloroquine sulfate” value was “superior to that of hydroxychloroquine sulfate at the same dose”. Besides, the “levels of anti-dsDNA antibodies in serum” value with anti-dsDNA antibodies is reported as “significantly reduced”. In addition, the “proliferation of spleen and lymph node lymphocytes in arthritic mice” value in data set [2] is “significantly inhibit”.
`CCN(CCO)CCCC(C)Nc1ccnc2cc(Cl)ccc12` (stereo not drawn) [Hydroxychloroquine Sulfate, hydroxychloroquine sulfate] showed a CC50 in the data set with mouse spleen lymphocytes of 25.2 µM.
